Results: patent US20170140097A1, “Methods For Identifying Agents With Desired Biological Activity” (The Procter & Gamble Company, priority 2012, published 2017)

What was measured:
MCF7 cell line = experiment: Signature-free query for agents with biological activity similar to estradiol in cell line MCF7 (FIG. 15); format: cell-based; conditions: cell line MCF7 (expresses estrogen receptors); top five and bottom five chemicals
Excerpt: Using the projection space matrix, it is possible to determine the similarity (or difference) between gene expression profiles in the projection space. The methods 100 and 110, for example, perform queries for similar biological activity (block 108) and biological dissimilarity (i.e., agents most likely to reverse a clinical endpoint) (block 112), respectively, by looking at the distances between instances depicted in the projection space matrix. Turning first to the method 100, FIG. 9 depicts a method 140 for performing a query for similar biological activity between instances mapping to two points in the projection space (e.g., for performing a query for similar activity between perturbagens) (block 108). […]
A query perturbagen (also referred to as a query agent) is then selected from the perturbagens in the projection space matrix (block 144). […] The distance from the query perturbagen in the projection space is calculated for each instance (or for a selected subset of instances) in the projection space matrix (block 146). In some embodiments, the distance is calculated as a cosine distance. In some embodiments, the distance is calculated as a Euclidean distance. […]
With reference to FIGS. 15 and 16, the effect of different perturbagens on different cell types at the transcriptional level is readily apparent. […]

[1] = test system: dandruff average condition profile; experiment: Signature-free query for agents with gene expression profiles most different from a query condition (dandruff) (FIG. 17); conditions: greater distance = more likely to reverse the condition
Excerpt: Turning next to the method 110, FIG. 10 depicts a method 150 for performing a query for perturbagens eliciting a biological response that is dissimilar to that induced by a condition (e.g., chemicals likely to reverse a particular condition in a cell) (block 112). The method includes determining an average condition profile to use as a query (block 152), as described above. Specifically, the average condition profile (also referred to as an “adjusted condition gene expression profile”) may be calculated by finding the average expression value for each of the subset of probes used to learn the expression matrix. That is, if all of probes ID1-IDN (referring to FIG. 13) were used to learn the expression matrix, the average expression profile for a condition tested in instances 3A-10A and 3B-10B would include an average expression value for probe ID1: The average condition profile is projected onto the projection space (block 154). The distance from the average condition profile to each of the perturbagens in the projection space matrix is determined (block 156) and, at least in some embodiments, the perturbagens are ranked according to the distance of each in the projection space from the average condition profile (block 158). In some embodiments, the distance is calculated as a cosine distance. In some embodiments, the distance is calculated as a Euclidean distance. […]

SMILES	ranking according to distance from query perturbagen estradiol (MCF7 cell line)	ranking according to distance from the query condition [1]
C[C@]12CC[C@@H]3c4ccc(O)cc4C[C@@H](CCCCCCCCC[S+]([O-])CCCC(F)(F)C(F)(F)F)[C@H]3[C@@H]1CC[C@@H]2O (stereo partly shown) [Fulvestrant]	most dissimilar	–
CC(=O)N1CCN(c2ccc(OCC3COC(Cn4ccnc4)(c4ccc(Cl)cc4Cl)O3)cc2)CC1 (stereo not shown) [Ketocanozole]	–	more distant from the query condition
CC(C)(C)C(=O)C(Oc1ccc(Cl)cc1)n1ccnc1 (stereo not shown) [Climbazole]	–	more distant from the query condition
CCN(CC)CCOc1ccc(C(=C(Cl)c2ccccc2)c2ccccc2)cc1 [Clomifene]	most dissimilar	–
